These results are taken from patent publication US10087199B2, “Super-resolution imaging compositions and methods using same” (Yale University, priority 2014, dated 2018).

Format in all cases: cell-based
One series concerns HeLa cells. Put plainly: Cell viability / cell- and photo-toxicity under prolonged imaging. The following applies: 5 μM. How it is done: In the experiments described above, the cells were exposed to Cer-TCO/SiR-Tz for minutes, a relatively short time period. To evaluate whether this Golgi labeling strategy would result in cell- or photo-toxicity over prolonged periods (such as hours), HeLa cells were treated with varying concentrations of either Cer-TCO/SiR-Tz or BODIPY® FL C5-ceramide (BODIPY-Cer) (Marks, et al., 2008, Cell Biol. 130:819-832; Pagano, et al., 1991, J. Cell Biol. 113:1267-1279), a commercially available fluorescent dye that labels the Golgi. […]
Hela cells stably expressing GalNAcT2-GFP were cultured on 35 mm glass bottom dishes subsequently labeled with various concentrations of TCO-Cer (0, 1, 2, and 5 μM) and SiR-Tz (0, 1, and 2 μM) following the protocol described elsewhere herein. […] After equilibration for 30 min, phase contrast images were taken at an interval of 20 min and fluorescence images at an interval of 10 min over 400-750 min. […] The number of physically intact cells was counted at each time point. For each condition at least 110 cells were counted/observed in the initial images (n0 (0 μM TCO-Cer, 0 μM SiR-Tz)=123 cells, n0 (2 μM TCO-Cer, 2 μM SiR-Tz)=113 cells, n0 (1 μM TCO-Cer, 1 μM SiR-Tz)=130 cells, n0 (5 μM TCO-Cer, 1 μM SiR-Tz)=120 cells, n0 (5 μM BODIPY-Cer)=123 cells).

Another series relates to HeLa cells (Golgi label). The experiment in a line: Photostability in sequential 3D spinning disk confocal imaging. The following applies: live cells; spinning disk confocal. How it is done:
The relative photostability of Cer-TCO/SiR-Tz to both BODIPY-Cer and the SiR labeled SNAP-tag Golgi protein Rab6 was compared. The latter is the product of reaction between Rab6-SNAP and a benzyl guanine derivative of SiR (SiR-BG) (Lukinavicius, et al., 2013, Nature Chem. 5:132-139) and thus contains the same near-IR dye as SiR-Tz (FIGS. 5A-5B). HeLa cells were treated with Cer-TCO/SiR-Tz or BODIPY-Cer, while Rab6-SNAP-expressing cells were treated with SiR-BG. The cells were then examined in sequential 3D images using spinning disk confocal microscopy; 3D visualization limited fluorescence fluctuations due to axial sample drift. In each case, 3D “stacks” of 22 optical sections were acquired in series up to 500 times in live or fixed cells (FIGS. 5A-5B). In live cells, even under optimal imaging conditions the BODIPY-Cer fluorescent signal decreased by 50% after fewer than 15 stacks. In striking contrast, the fluorescent signal of cells treated with 2 μM Cer-TCO followed by 2 μM SiR-Tz decreased by only 10% after more than 120 3D stacks had been acquired. Consistent with a lower density of Rab6-SNAP protein in the Golgi, the signal from Rab6-SNAP-SiR decayed at an intermediate rate, decreasing by 50% after about 50 3D stacks. […] After 500 3D stacks the fluorescent signal of Cer-SiR decreased 16% whereas that of Rab6-SNAP-SiR decreased by 84%. […]

Series [1] has as its system HeLa cells that stably expressed GalNAcT2-GFP. The experiment in a line: FRAP analysis of GalNAcT2-GFP mobility within the Golgi. The following applies: recovery over 490 seconds, Cer-TCO alone or 5 μM Cer-TCO and 1 μM SiR-Tz, versus untreated. An excerpt:
To further test whether the combination of Cer-TCO and SiRTz affected traffic within the Golgi, HeLa cells that stably expressed the GFP-tagged transmembrane Golgi enzyme GalNAcT2 (Storrie, et al., 1998, J. Cell Biol. 143:1505-1521) were used and its intra-organelle mobility was monitored using fluorescence recovery after photobleaching (FRAP) experiments (FIG. 4A). A small rectangular area of the Golgi (about 2.2 microns wide) was photobleached at 488 nm and the fluorescence recovery was monitored over 490 seconds (FIG. 4B). Both the t1/2 of recovery and mobile fraction were unchanged when the cells were treated with Cer-TCO alone or the combination of 5 μM Cer-TCO and 1 μM SiR-Tz (FIG. 4C). Thus, treatment of cells with Cer-TCO alone or Cer-TCO and SiR-Tz led to no detectable change in the diffusion of GalNAcT2-GFP within the Golgi apparatus.
The stable cell line was cultured on a 35 mm glass bottom dish. In the negative control (no treatment), the medium was replaced by DMEM ph(−). […] The photobleaching of the FRAP experiment was performed with a fluorescence recovery after photobleaching unit of the microscope. […] Quantification was performed with ImageJ. The fluorescence intensity in the unbleached region of the cytosol was subtracted from that in the bleached region of Golgi. […]

Series [2] deals with HeLa cells that stably expressed GalNAcT2-GFP (Golgi). Put plainly: Two-step Golgi labeling and colocalization with GalNAcT2-GFP by confocal microscopy. How it is done:
To evaluate whether the Golgi could be selectively imaged using Cer-SiR, HeLa cells that stably expressed a protein fusion composed of GFP and N-acetyl-galactosaminyltransferase 2 (GalNAcT2), a transmembrane protein that localizes to the Golgi with high specificity (Storrie, et al., 1998, J. Cell Biol. 143:1505-1521), were used. These cells were treated with 2 μM Cer-TCO (5 min), maintained at 19.5° C. for 60 min to localize the lipid to the Golgi, treated subsequently with 2 μM SiR-Tz (30 min), and visualized using confocal microscopy (FIG. 2A).
The GalNAcT2-GFP and Cer-SiR signals colocalized with a Pearson's coefficient of 0.50±0.02; the corresponding value for the signals from GalNAcT2-GFP and SiR-Tz was 0.08±0.01 (p<0.0001) (FIG. 10), supporting that Cer-TCO effectively localized to the Golgi and reacted efficiently with SiR-Tz.
Stably or transiently transfected HeLa cells were cultured on 35 mm glass bottom dishes (Mattek). To label with Cer-TCO/SiR-Tz, the cells were incubated in PBS containing 1% casein, 0.2% Pluronic F-127 and 2 or 5 μM TCO-Cer for 5 min at 37° C. After washing three times with DMEM ph(−), the cells were incubated for 1 h at 19.5° C. in DMEM ph(−). During this incubation the dish was sealed with parafilm to protect the cells from the used water bath. Subsequently, the cells were washed three times and PBS containing 1% casein and 2 or 1 μM SiR-Tz, respectively, was added to the dish. The dish was sealed with parafilm again and incubated for 30 min at 19.5° C. After washing three times with DMEM ph(−), the cells were observed under a confocal microscope. Fixed samples were prepared similarly with an additional treatment with 4% PFA for 10 min at room temperature after first temperature block. […]
The Pearson correlation between the SiR and the GFP signal within cells was determined using the correlation measurement tool in Volocity. […] For cells stably expressing GalNAcT2-GFP and treated with SiR-Tz and Cer-TCO 13 samples (cells) were analyzed and for cells only treated with SiR-Tz 8 samples were analyzed. […]

In the case of `CCCCCCCCCCCCC/C=C/[C@@H](O)[C@H](CO)NC(=O)CCCCC1=[N+]2C(=Cc3c(C)cc(C)n3[B-]2(F)F)C=C1` [BODIPY-Cer, BODIPY® FL C5-ceramide, reference compound], the “Time after which cell rounding and de-attachment was induced” value in the series on HeLa cells was “about 6 hours”. For the same compound, the “Number of 3D stacks after which fluorescent signal decreased by 50%” value in the series with HeLa cells (Golgi label) was under 15 stacks. Regarding `CCCCCCCCCCCCC/C=C/[C@@H](O)[C@H](CO)NC(=O)CCCCCNC(=O)OC1CC/C=C/CCC1` (stereo partly drawn) [Cer-TCO, (E)-cyclooct-4-en-1-yl (6-(((2S,3R,E)-1,3-dihydroxyoctadec-4-en-2-yl)amino)-6-oxohexyl)carbamate], the “Mobile fraction (FRAP)” value in series [1] is “unchanged”. For `CN(C)c1ccc2c(c1)[Si](C)(C)C1=CC(=[N+](C)C)C=CC1=C2c1cc(C(=O)NCc2ccc(-c3nncnn3)cc2)ccc1C(=O)[O-]` [SiR-Tz, 4-((4-(1,2,4,5-tetrazin-3-yl)benzyl)carbamoyl)-2-(7-(dimethylamino)-3-(dimethyliminio)-5,5-dimethyl-3,5-dihydrodibenzo[b,e]silin-10-yl)benzoate], in series [2] (2 μM Cer-TCO then 2 μM SiR-Tz, or SiR-Tz only, Golgi area, confocal), the “Pearson's coefficient of colocalization with GalNAcT2-GFP signal” value worked out at 0.08±0.01. Besides, in series [2] (live HeLa GalNAcT2-GFP cells, Cer-TCO followed by SiR-Tz, or SiR-Tz alone), the “Labeling of cells / Golgi region” value is on record as “did not label the cells”.
